According to patent US20240109903A1, “SUBSTITUTED HETEROCYCLES FOR TREATING CANCER” (Northwestern University, priority 2022, published 2024):
Like-named read-outs stand apart in the source and are kept apart here.

Assays:
Format in all cases: cell-based
UACC-257 = assay: NCI 60 five-dose screen UACC-257; details: Homo sapiens, five-dose
PC-3 = assay: NCI 60 five-dose screen PC-3; details: Homo sapiens, five-dose
NCI-H226 = assay: NCI 60 five-dose screen NCI-H226; details: Homo sapiens, five-dose
NCI/ADR-RES = assay: NCI 60 five-dose screen NCI/ADR-RES; details: Homo sapiens, five-dose
OVCAR-5 = assay: NCI 60 five-dose screen OVCAR-5; details: Homo sapiens, five-dose
A498 = assay: NCI 60 five-dose screen A498; details: Homo sapiens, five-dose
U251 = assay: NCI 60 five-dose screen U251; details: Homo sapiens, U-251, five-dose
SW-620 = assay: NCI 60 five-dose screen SW-620; details: Homo sapiens, five-dose
NCI-H522 = assay: NCI 60 five-dose screen NCI-H522; details: Homo sapiens, five-dose
HOP-62 = assay: NCI 60 five-dose screen HOP-62; details: Homo sapiens, five-dose
RPMI-8226 = assay: NCI 60 five-dose screen RPMI-8226; details: Homo sapiens, five-dose
UACC-62 = assay: NCI 60 five-dose screen UACC-62; details: Homo sapiens, five-dose
NCI-H460 = assay: NCI 60 five-dose screen NCI-H460; details: Homo sapiens, five-dose
DU-145 = assay: NCI 60 five-dose screen DU-145; details: Homo sapiens, five-dose
ACHN = assay: NCI 60 five-dose screen ACHN; details: Homo sapiens, five-dose
[1] = tested on: MV-4-11 acute myeloid leukemia cells; assay: CellTiter-Glo 2.0 cell viability, MV-4-11; details: Homo sapiens
Description: 2019 October; 94(4): 1813-1823.
Cell viability was assessed using the CellTiter-Glo 2.0 assay from Promega, which yields a signal proportional to the amount of ATP present in a cell population. Compounds were first dispensed into empty 96-well flat-bottom tissue culture-treated plates (Corning) using an Echo550. MV4-1 cells were diluted to a density of 0.1 million cells per ml, pipetted onto the compounds at a density of 1,000 cells per well for U937 and 3,000 cells per well for MV4-11, mixed, and incubated for 3 days at 37° C. with 5% C02. After incubating, 5 μl of cells from each well were added to 5 μl of CellTiter-Glo 2.0 reagent in a384-well white ProxiPlate (PerkinElmer), incubated for 20 minutes at ambient temperature, and luminescence was analyzed on an EnSpire plate reader. Graphing and regression analysis was performed in Graphpad Prism.

MDA-MB-435 = assay: NCI 60 five-dose screen MDA-MB-435; details: Homo sapiens, five-dose
BT-549 = assay: NCI 60 five-dose screen BT-549; details: Homo sapiens, five-dose
MDA-MB-468 = assay: NCI 60 five-dose screen MDA-MB-468; details: Homo sapiens, five-dose
HS 578T = assay: NCI 60 five-dose screen HS 578T; details: Homo sapiens, five-dose
CCRF-CEM = assay: NCI 60 five-dose screen CCRF-CEM; details: Homo sapiens, five-dose
NCI-H23 = assay: NCI 60 five-dose screen NCI-H23; details: Homo sapiens, five-dose
OVCAR-3 = assay: NCI 60 five-dose screen OVCAR-3; details: Homo sapiens, five-dose
SK-MEL-28 = assay: NCI 60 five-dose screen SK-MEL-28; details: Homo sapiens, five-dose
SK-MEL-5 = assay: NCI 60 five-dose screen SK-MEL-5; details: Homo sapiens, five-dose
[2] = read-out: LC50 (the source's name) (converted)
[3] = read-out: LC50 (the source's name)

## FC(F)(F)CN1CCN(CCn2c(C(F)(F)F)cc3c(Cl)ncnc32)CC1 [NUCC-0226683]
UACC-257
  GI50: 4.07 µM
  IC50: 11 µM
  IC (TGI): 17 µM
UACC-257; [2]
  CC50: 57.5 µM
PC-3
  GI50: 3.55 µM
  IC50: 5.01 µM
  IC (TGI): 12 µM
PC-3; [2]
  CC50: 57.5 µM
NCI-H226
  GI50: 17.4 µM
  IC50: 100 µM
  IC (TGI): 72.4 µM
NCI-H226; [2]
  CC50: ≥ 100 µM
NCI/ADR-RES
  GI50: 19.1 µM
  IC50: 35.5 µM
  IC (TGI): 46.8 µM
NCI/ADR-RES; [2]
  CC50: ≥ 100 µM
OVCAR-5
  GI50: 100 µM
  IC50: 100 µM
  IC (TGI): 100 µM
OVCAR-5; [2]
  CC50: ≥ 100 µM
A498
  GI50: 21.4 µM
  IC50: 100 µM
  IC (TGI): 57.5 µM
A498; [2]
  CC50: ≥ 100 µM
U251
  GI50: 2.4 µM
  IC50: 3.63 µM
  IC (TGI): 6.46 µM
U251; [2]
  CC50: 24 µM
SW-620
  GI50: 4.9 µM
  IC50: 6.17 µM
  IC (TGI): 19.5 µM
SW-620; [2]
  CC50: 63.1 µM
NCI-H522
  GI50: 1.7 µM
  IC50: 3.24 µM
  IC (TGI): 3.55 µM
NCI-H522; [2]
  CC50: 7.24 µM
HOP-62
  GI50: 13.8 µM
  IC50: 28.8 µM
  IC (TGI): 32.4 µM
HOP-62; [2]
  CC50: 75.9 µM
RPMI-8226
  GI50: 23.4 µM
  IC50: 39.8 µM
  IC (TGI): 77.6 µM
RPMI-8226; [3]
  CC50: ≥ 100 µM
UACC-62
  GI50: 4.68 µM
  IC50: 10 µM
  IC (TGI): 18.2 µM
UACC-62; [2]
  CC50: 47.9 µM
NCI-H460
  GI50: 2.69 µM
  IC50: 3.63 µM
  IC (TGI): 6.76 µM
NCI-H460; [2]
  CC50: 30.9 µM
DU-145
  GI50: 12.6 µM
  IC50: 22.4 µM
  IC (TGI): 33.1 µM
DU-145; [2]
  CC50: 87.1 µM
ACHN
  GI50: 12.3 µM
  IC50: 22.4 µM
  IC (TGI): 100 µM
ACHN; [2]
  CC50: ≥ 100 µM
[1]; MV4-11, 72 h, MV-4-11 cells, 3 days, CellTiter-Glo 2.0, read-out: IC50 (uM) [Cell Type: MV-4-11]
  IC50: 1.83 µM
[1]; MV4-11, bound stated in text, read-out: IC50 against MV-4-11 acute myeloid leukemia cells
  IC50: < 2 µM
MDA-MB-435
  GI50: 5.5 µM
  IC50: 9.12 µM
  IC (TGI): 19.5 µM
MDA-MB-435; [2]
  CC50: 51.3 µM
BT-549
  GI50: 12.9 µM
  IC50: 26.9 µM
  IC (TGI): 26.9 µM
BT-549; [2]
  CC50: 55 µM
MDA-MB-468
  GI50: 2.19 µM
  IC50: 6.03 µM
  IC (TGI): 4.9 µM
MDA-MB-468; [2]
  CC50: 14.1 µM
HS 578T
  GI50: 14.1 µM
  IC50: 100 µM
  IC (TGI): 60.3 µM
HS 578T; [3]
  CC50: ≥ 100 µM
CCRF-CEM
  GI50: 4.37 µM
  IC50: 7.41 µM
  IC (TGI): 100 µM
CCRF-CEM; [3]
  CC50: ≥ 100 µM
NCI-H23
  GI50: 5.89 µM
  IC50: 14.8 µM
  IC (TGI): 26.9 µM
NCI-H23; [2]
  CC50: ≥ 100 µM
OVCAR-3
  GI50: 14.5 µM
  IC50: 28.8 µM
  IC (TGI): 34.7 µM
OVCAR-3; [2]
  CC50: 83.2 µM
SK-MEL-28
  GI50: 8.13 µM
  IC50: 16.6 µM
  IC (TGI): 37.2 µM
SK-MEL-28; [2]
  CC50: ≥ 100 µM
SK-MEL-5
  GI50: 3.72 µM
  IC50: 6.17 µM
  IC (TGI): 13.8 µM
SK-MEL-5; [2]
  CC50: 37.2 µM
